{
  "source": "patent US12521362B2",
  "about": "“Agent for treating, preventing, or improving psychiatric and nervous system disorders or symptoms” (TOKYO UNIVERSITY OF SCIENCE FOUNDATION, priority 2019, dated 2026)",
  "key": {"[1]": {"tested_on": "object recognition function in mice", "assay": "Novel object location task (NOL), memory retrieval task", "format": "in vivo, Male C57BL/6J mice", "conditions": "DSF diet (0.8 mg DSF per 1 g diet) for 3 weeks; p<0.05 (FIG. 8)", "procedure": "To 1 g of an MF diet, 0.8 mg of DSF and 50 mg of sucrose or only 50 mg of sucrose (without DSF) were added to prepare a DSF diet or a control diet, respectively, as a solid diet. The novel object location task (NOL) was conducted to assess object recognition function in mice administered with any of the test drugs. The NOL is a test used to evaluate the ability to remember the location of an object (Dix, S. L. & Aggleton, J. P., Behav Brain Res: 1999 March; 99(2): 191-200). Mice were placed in a 33 cm square white box (open field: OF) and allowed to explore the white box freely for 10 minutes every day in the period of 3 days (acclimation). On Day 4, two objects with the same shape were placed in the OF apparatus, and the mice were allowed to learn the locations of the objects (FIG. 8; learning). On Day 5, one of the objects was relocated to a location that was different from the original location during the learning tasks, and the mice were allowed to explore the objects for 5 minutes, and the length of time spent exploring the objects was measured (FIG. 8; memory retrieval task). […] In the NOL memory retrieval task, the length of time spent exploring each object was measured to evaluate the effect of each test drug on the cognitive ability of the mice."}, "[2]": {"tested_on": "spatial learning ability in mice", "assay": "Morris water maze task (WM)", "format": "in vivo, Male C57BL/6J mice", "conditions": "DSF diet for 4 weeks", "procedure": "To 1 g of an MF diet, 0.8 mg of DSF and 50 mg of sucrose or only 50 mg of sucrose (without DSF) were added to prepare a DSF diet or a control diet, respectively, as a solid diet. Next, the Morris water maze task (WM) was conducted to assess spatial learning ability in mice administered with any of the test drugs. The WM is widely used for assessing spatial learning and memory in mice (Morris, R. G. M., Learning and Motivation: 1981, 12, 239-260). A WM apparatus was a circular pool of 120 cm in diameter, filled with white-colored water and equipped with a submerged platform (PF) on which a mouse was allowed to stand and rest. Mice were allowed to swim from a randomly selected starting point in the pool, and the distance spent swimming before reaching the hidden platform was measured (FIG. 9A). […] Thus, the spatial learning ability can be assessed based on the distance traveled to find the platform. […] The effect of a test drug on spatial memory formation was evaluated from the ratio of time spent exploring the area at each probe trial after the platform was removed from the original location. […] At the WM learning trials, the distance spent swimming before reaching the platform was measured every day to evaluate the effect of each test drug on the spatial learning of the mice. Moreover, the effect of each test drug on the spatial memory formation in the mice was evaluated at the probe trials."}, "[3]": {"tested_on": "wild-type APP-transfected cells", "conditions": "in vitro, cultured cells; data of Patent Document 3; cited from earlier work"}, "[4]": {"tested_on": "anxiety-like behaviors in mice", "assay": "Elevated plus maze (EPM) test of exploration behavior", "excerpt": "An elevated plus maze (EPM) apparatus (FIG. 1) was used to assess anxiety-like behaviors in mice administered with any of the test drugs. The EPM apparatus is a plus-shaped maze apparatus with open and closed arms and is used for assessment of anxiety-like behaviors of animals. Animals administered with a benzodiazepine (BZD) anxiolytic drug are known to increase the ratio of time spent in the open arm and the ratio of open arm entries. The EPM test is the most representative test available as a system for evaluating an anxiolytic drug.\nMice were acclimated to the testing laboratory for 60 minutes, and a prepared test drug was then administered to each mouse at a dose of 0.25 mL/20 g. After the elapse of a predetermined period of time from the administration of the drug, the EPM apparatus was used to quantify exploration behavior of the mouse for 5 minutes. The equations below were used to evaluate the effects of each test drug on exploration behavior in mice. Statistical analysis was performed with Dunnett's multiple comparison test, and a significant difference was considered at P<0.05. Time spent in open arm (%)−Time spent in open arm (sec)/{Time spent in open arm (sec)+Time spent in closed arm (sec)}×100 Open arm entry (%)−Open arm entries (times)/{Open arm entries (times)+Closed arm entries (times)}×100 Total arm entries (times)=Open arm entries (times)+Closed arm entries (times) 2.\nDisulfiram was administered intraperitoneally to mice (n=8 per group) at a dose of 20, 40, or 80 mg/kg, and the mice were tested 30 minutes after the administration for their exploration behavior by using the EPM apparatus. As a positive control experiment, diazepam, a BZD anxiolytic drug, was administered subcutaneously to mice at a dose of 1.5 mg/kg (equivalent to the dose used clinically for humans), and the mice were similarly tested for their exploration behavior by using the EPM apparatus. A solution of 2% Tween 80, 10% DMSO, and 88% corn oil was administered intraperitoneally to mice in the solvent control group.\nDisulfiram was administered to mice (n=8 per group) at a dose of 40 mg/kg, and the mice were tested 15, 30, 60, or 120 minutes after the administration for their exploration behavior by using the EPM apparatus.\nCyanamide was investigated for the presence of an anxiolytic-like effect. Cyanamide or disulfiram was administered to mice (n=6 per group) at a dose of 80 or 40 mg/kg, respectively, and the mice were tested 30 minutes after the administration for their exploration behavior by using the EPM apparatus.\nThe iron(III) complex of diethyldithiocarbamate (DDC) (Fe(DDC)3) as a disulfiram (DSF)-related compound was investigated for the presence of an anxiolytic-like effect. Each drug was administered intraperitoneally to mice in the Fe(DDC)3 dose group (n=5) and the DDC dose group (n=4) at a dose of 40 mg/kg. A solution of 2% Tween 80, 10% DMSO, and 88% corn oil was administered intraperitoneally to mice in the solvent control group (n=9). Thirty minutes after the administration, the elevated plus maze test was performed for 5 minutes.\nThe copper complex of DDC (Cu(DDC)2) as a DSF-related compound was investigated for the presence of an anxiolytic-like effect. Cu(DDC)2 was administered orally to mice (n=4) at a dose of 40 mg/kg. A solution of 2% Tween 80, 10% DMSO, and 88% corn oil was administered orally to mice in the solvent control group (n=4). Sixty minutes after the administration, the elevated plus maze test was performed for 5 minutes."}, "[5]": {"tested_on": "mouse models of depression (SDS models)", "assay": "Social interaction (SI) test after social defeat stress (SDS models)", "format": "in vivo, C57BL/6J mice", "conditions": "DSF diet freely for 3 months, then SDS for 10 days; control group SI time significantly decreased (FIG. 11)", "procedure": "To 1 g of an MF diet, 0.8 mg of DSF and 50 mg of sucrose or only 50 mg of sucrose (without DSF) were added to prepare a DSF diet or a control diet, respectively, as a solid diet. C57BL/6J mice were allowed to eat the DSF diet (200 mg/day) freely for 3 months and then exposed to social defeat stress (SDS) for 10 days to create mouse models of depression (SDS models) (Golden S. A. et al., Nat Protoc. Vol. 6, No. 8, pp. 1183-1191, 2011). The SDS models were created by placing a single C57BL/6J mouse in a home cage where a male ICR mouse had been housed for a long period of time and exposing the mouse to physical aggression by the ICR mouse. In this study, the stress exposure was applied for 10 minutes a day in a period of consecutive 10 days. Depressive-like symptoms were evaluated by the social interaction (SI) test (Golden S. A. et al., 2011, supra). An apparatus composed of an open field apparatus (45 cm×45 cm×30 cm) and a mesh cage (8 cm×6 cm×30 cm) placed on one side of the open field apparatus was used to perform the SI test, in which the time (SI time) spent by the C57BL/6J mouse approaching and making contact with the ICR mouse (Target) in the mesh cage during the measurement time (2.5 minutes) was compared with that in the absence of the ICR mouse (Non-target)."}, "[6]": {"tested_on": "hyperemotional response and hyperactivity in mice", "assay": "Hyperemotional response and hyperactivity after chronic administration", "format": "in vivo, ICR mice", "conditions": "DSF diet freely for 3 months", "procedure": "To 1 g of an MF diet, 0.8 mg of DSF and 50 mg of sucrose or only 50 mg of sucrose (without DSF) were added to prepare a DSF diet or a control diet, respectively, as a solid diet. ICR mice were allowed to eat the DSF diet (200 mg/day) freely for 3 months to assess hyperemotional response and hyperactivity. Hyperemotional response was evaluated in those mice according to the method of Kelly et al., (Kelly, J. P. et al., Pharmacol. Ther. Vol. 74, No. 3, pp. 299-316, 1997) by individually scoring (A) the response to an object placed in front of the nose, (B) the response to air blown thereon, or (C) the resistance to handling, based on the following criteria of emotional responses: • 0: no response; • 1: interest in the object, or only a slight movement, or easy to handle; • 2: protective or evasive actions against the object, or expression of surprise, or nervous but still easy to handle; • 3: aggressive actions such as biting, or clear expression of surprise, or nervous and difficult to handle; • 4: highly aggressive actions, or expression of surprise with jumping, or quite difficult to handle. The hyperactivity of each mouse was measured over a period of 30 seconds by counting the number of times the mouse crossed the lines that divided the floor of a cage to four areas."}, "[7]": {"conditions": "40 mg/kg, time course 15-120 minutes"}, "[8]": {"conditions": "intraperitoneal 20, 40 or 80 mg/kg, 30 minutes after administration, dose-dependent, vs solvent control (FIG. 2)"}, "[9]": {"conditions": "subcutaneous 1.5 mg/kg, positive control (FIG. 3)"}, "[10]": {"conditions": "oral 40 mg/kg, sixty minutes after administration (FIG. 7)"}, "[11]": {"conditions": "80 mg/kg, 30 minutes after administration (FIG. 5)"}, "[12]": {"conditions": "intraperitoneal 40 mg/kg, 30 minutes, two mice with no sedative effect (FIG. 6)"}},
  "data": [
    {"compound": "CCN(CC)C(=S)SSC(=S)N(CC)CC", "note": "[disulfiram, tetraethylthiuram disulfide]", "values": [
      {"measurement": "time spent exploring the relocated object vs the object remaining at the original location", "setting": "[1]", "value": "significantly longer"},
      {"measurement": "distance traveled to find the platform", "setting": "[2]; Days 4 and 6, p<0.05 vs control diet (FIG. 9A)", "value": "shorter"},
      {"measurement": "time spent for exploring the platform area at the probe trial", "setting": "[2]; probe trial on Day 5, p<0.05 vs control diet (FIG. 9B)", "value": "significantly longer"},
      {"measurement": "secretion of sAPPα", "setting": "[3]", "value": "promote secretion of sAPPα"},
      {"measurement": "ratio of time spent in the open arm", "setting": "[4]; 40 mg/kg, tested 15, 30, 60 or 120 minutes after administration, increased from 15 minutes (FIG. 4)", "value": "significantly increased"},
      {"measurement": "effect observed till (time after the administration)", "setting": "[4]; [7]", "value": 60, "unit": "min"},
      {"measurement": "time of peak anxiolytic-like effect", "setting": "[4]; [7]", "value": 30, "unit": "min"},
      {"measurement": "anxiolytic-like effect", "setting": "[4]; disulfiram 40 mg/kg to 80 mg/kg i.p. compared with diazepam 1.5 mg/kg s.c.", "value": "comparable to that of diazepam"},
      {"measurement": "ratio of open arm entries", "setting": "[4]; [8]", "value": "significantly increased"},
      {"measurement": "ratio of time spent in the open arm", "setting": "[4]; [8]", "value": "significantly increased"},
      {"measurement": "SI time in the presence of the Target vs Non-target", "setting": "[5]", "value": "any change in SI time was not observed"},
      {"measurement": "hyperemotional response (score)", "setting": "[6]; vs control diet group (FIG. 10A)", "value": "significant decreases"},
      {"measurement": "hyperactivity (line crossings in 30 seconds)", "setting": "[6]; vs control diet group (FIG. 10B)", "value": "significant decreases"}
    ]},
    {"compound": "CN1C(=O)CN=C(c2ccccc2)c2cc(Cl)ccc21", "note": "[diazepam, Diazepam]", "values": [
      {"measurement": "ratio of open arm entries", "setting": "[4]; [9]", "value": "increased"},
      {"measurement": "ratio of time spent in the open arm", "setting": "[4]; [9]", "value": "increased"}
    ]},
    {"compound": "copper diethyldithiocarbamate [Cu(DDC)2]", "values": [
      {"measurement": "anxiolytic-like effect", "setting": "[4]; [10]", "value": "confirmed to have an anxiolytic-like effect"},
      {"measurement": "ratio of time spent in the open arm", "setting": "[4]; [10]", "value": "significantly increased"},
      {"measurement": "ratio of open arm entries", "setting": "[4]; oral 40 mg/kg, sixty minutes after administration, not significantly different (FIG. 7)", "value": "clear tendency to increase"}
    ]},
    {"compound": "N#CN", "note": "[Cyanamide, cyanamide (H2 N—CN)]", "values": [
      {"measurement": "anxiolytic-like effect", "setting": "[4]; [11]", "value": "no anxiolytic-like effect"},
      {"measurement": "ratio of open arm entries", "setting": "[4]; [11]", "value": "no significant effects"},
      {"measurement": "ratio of time spent in the open arm", "setting": "[4]; [11]", "value": "no significant effects"}
    ]},
    {"compound": "CCN(CC)C(=S)[S-].CCN(CC)C(=S)[S-].CCN(CC)C(=S)[S-].[Fe+3]", "note": "[Fe(DDC)3, diethyldithiocarbamic acid ferric salt]", "values": [
      {"measurement": "anxiolytic-like effect", "setting": "[4]; intraperitoneal 40 mg/kg, 30 minutes (FIG. 6)", "value": "confirmed to have an anxiolytic-like effect"},
      {"measurement": "sedative effect", "setting": "[4]; intraperitoneal 40 mg/kg, 30 minutes, observed in three mice of n=5, no exploration", "value": "strong sedative effect"},
      {"measurement": "ratio of open arm entries", "setting": "[4]; [12]", "value": "significantly increased"},
      {"measurement": "ratio of time spent in the open arm", "setting": "[4]; [12]", "value": "significantly increased"}
    ]}
  ]
}
